The results in this text go back to patent US11524966B1 (Valo Early Discovery, Inc., priority 2017, dated 2022).

Structures are written as SMILES.

One experiment concerns the target T1, USP25 (USP25-His6, Boston Biochem E-546) (Homo sapiens, UniProt Q9UHP3).
T1 construct: His6; purchased Boston Biochem E-546
T1 sequence (Q9UHP3 1-1055): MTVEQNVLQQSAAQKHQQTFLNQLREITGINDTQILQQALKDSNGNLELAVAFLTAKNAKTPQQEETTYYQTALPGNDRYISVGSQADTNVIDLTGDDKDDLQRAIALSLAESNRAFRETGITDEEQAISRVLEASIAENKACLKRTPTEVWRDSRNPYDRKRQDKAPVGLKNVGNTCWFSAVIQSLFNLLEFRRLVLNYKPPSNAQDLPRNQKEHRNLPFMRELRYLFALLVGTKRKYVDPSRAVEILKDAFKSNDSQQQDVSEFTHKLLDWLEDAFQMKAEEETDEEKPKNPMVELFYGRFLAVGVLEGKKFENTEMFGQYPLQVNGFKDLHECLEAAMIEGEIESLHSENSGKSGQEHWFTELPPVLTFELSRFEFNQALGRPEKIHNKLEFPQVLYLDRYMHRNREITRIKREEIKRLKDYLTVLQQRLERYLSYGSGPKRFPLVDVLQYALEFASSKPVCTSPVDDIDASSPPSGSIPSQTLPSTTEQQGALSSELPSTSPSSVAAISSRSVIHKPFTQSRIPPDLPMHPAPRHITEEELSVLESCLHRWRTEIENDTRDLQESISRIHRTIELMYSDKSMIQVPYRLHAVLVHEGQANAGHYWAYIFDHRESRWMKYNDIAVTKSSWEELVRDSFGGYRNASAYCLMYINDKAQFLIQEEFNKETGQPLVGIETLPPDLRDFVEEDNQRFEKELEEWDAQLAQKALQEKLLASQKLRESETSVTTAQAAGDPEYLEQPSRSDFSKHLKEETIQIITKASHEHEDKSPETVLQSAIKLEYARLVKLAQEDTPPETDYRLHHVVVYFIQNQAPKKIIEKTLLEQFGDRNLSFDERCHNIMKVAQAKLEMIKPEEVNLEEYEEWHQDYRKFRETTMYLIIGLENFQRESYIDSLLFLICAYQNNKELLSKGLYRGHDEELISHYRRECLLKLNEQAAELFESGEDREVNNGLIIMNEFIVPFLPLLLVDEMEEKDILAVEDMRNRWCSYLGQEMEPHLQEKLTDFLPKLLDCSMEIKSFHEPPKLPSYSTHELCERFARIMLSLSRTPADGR
The experiment in a line: Ubiquitin-Rhodamine 110 Assay for USP25 Activity, Example A-2. Format: biochemical. The settings on record: Ubiquitin-Rhodamine 110 assay, Example A-2; read-out: USP25 A-2 IC50 range. The gist of the method: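 Fluorescence (ex 485, em 535 nm) of cleaved ubiquitin-rhodamine 110 (25 nM, below Km) gave IC50 via 4-parameter logistic fit. Reaction: 45 min, room temperature, citric acid stop, after 30 min compound preincubation with 75 pM USP25-His6 in 20 mM Tris pH 8.0, 3 mM BME, 0.03% BGG, 0.01% Triton X-100; top dose 25 μM.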
By IC50 is commonly meant the concentration that inhibits the measured activity by half. `Cc1cc(C)c2c(N)c(C(=O)N[C@H]3COc4cc(N5CC6CC(C5)N6)cc(F)c4C3)sc2n1` [Example 10-7, N-((3R)-7-(3,6-diazabicyclo[3.1.1]heptan-3-yl)-5-fluorochroman-3-yl)-3-amino-4,6-dimethylthieno[2,3-b]pyridine-2-carboxamide]: the half-inhibitory concentration (IC50) lay in the range of 50 to 200 nM. The same measure, in the same setting: next, `Cc1ccc2c(N)c(C(=O)N[C@H]3COc4cc(N5CCNCC5)cc(F)c4C3)sc2n1` [Example 10-1, (R)-3-amino-N-(5-fluoro-7-(piperazin-1-yl)chroman-3-yl)-6-methylthieno[2,3-b]pyridine-2-carboxamide]: 50 to 200 nM. For the compound `Cc1cnc2c(N)c(C(=O)N[C@H]3CCc4cc(N5CCNC[C@@H](O)C5)ccc4C3)sc2n1` (single isomer, unassigned) [Example 7-4], the IC50 lay within 200 to 2000 nM. The same measure, in the same setting: to `Cc1cnc2c(N)c(C(=O)N[C@H]3COc4cc(N5CC6CC(C5)N6)cc(F)c4C3)sc2n1` [Example 10-8, N-((3R)-7-(3,6-diazabicyclo[3.1.1]heptan-3-yl)-5-fluorochroman-3-yl)-7-amino-3-methylthieno[2,3-b]pyrazine-6-carboxamide] belongs 50 to 200 nM. `COc1ccc2c(N)c(C(=O)N[C@@H]3CCc4cc(N5CC6CCC(C5)N6)ccc4C3)sc2n1` (single isomer, unassigned) [Example 11-6]: the half-inhibitory concentration (IC50) is above 2000 nM. With `Cc1ccc2c(N)c(C(=O)N[C@H]3CCc4cc(N5CCNCC5)cc(F)c4C3)sc2n1` (single isomer, unassigned) [Example 11-11], the 50% inhibitory concentration (IC50) is above 2000 nM.

Still in this experiment, the particulars now being: Ubiquitin-Rhodamine 110 assay, format Example A-2; read-out: USP25 A-2 IC50 range.
On to `Cc1ccc2c(N)c(C(=O)N[C@H]3CCc4cc(N5CCNCC5)cnc4C3)sc2n1` (single isomer, unassigned) [Example 15-2], for which the half-maximal inhibitory concentration (IC50) was above 2000 nM. As to `Cc1ccc2c(N)c(C(=O)N[C@@H]3CCc4c(ccc(N5CCNCC5)c4F)C3)sc2n1` (single isomer, unassigned) [Example 21-5], the IC50 fell in the range of 50 to 200 nM. As for `Cc1ccc2c(N)c(C(=O)N[C@H]3COc4cc(N5CC6CCC(C5)N6)nc(F)c4C3)sc2n1` [Example 17, N-((3R)-7-(3,8-Diazabicyclo[3.2.1]octan-3-yl)-5-fluoro-3,4-dihydro-2H-pyrano[3,2-c]pyridin-3-yl)-3-amino-6-methylthieno[2,3-b]pyridine-2-carboxamide], the IC50 is 50 to 200 nM.

`Cc1ccc2c(N)c(C(=O)N[C@H]3CCc4cc(N5CC6CCC(C5)N6)c(F)cc4C3)sc2n1` (single isomer, unassigned) [Example 21-4]: the IC50 was above 2000 nM. Still for that read-out and setting: to `CO[C@H]1CN(c2ccc3c(n2)CC[C@H](NC(=O)c2sc4nc(C)ccc4c2N)C3)C[C@@H]1N` [Example 23-4, 3-amino-N-[(6S)-2-[(3S,4S)-3-amino-4-methoxypyrrolidin-1-yl]-5,6,7,8-tetrahydroquinolin-6-yl]-6-methylthieno[2,3-b]pyridine-2-carboxamide] belongs above 2000 nM.
